This is an account of results in patent US5821252A, “Method of blocking nerve conduction by treatment with branched-chain esters of 2-[4-(2-piperidine-ethoxy)-benzoyl]-benzoic acid and pharmaceutically acceptable salts thereof” (priority 1988, dated 1998).

For data set [1], the system named is small intestine motility. The experiment in a line: Small intestinal motility in the conscious dog, phase I and II activity. The data set is classed as in vivo. To be noted: for rank order of potency: spontaneous motility of small intestine, conscious dog. An excerpt:
(§1) Male dogs (THG Tierhandelsgesellschaft Rodenbach, Hoe: BEAK (Beagle)) weighing 15-20 kg were used in all experiments. At least 4 weeks prior to the experiment the dogs had been equipped with miniaturized strain gage force transducers (T1-T3) (2×4 mm), sutured onto the gut at the locations mentioned below. The cables of the transducers were embedded into a cannula which carried the plug for external electric connection. This stainless steel cannula was implanted into the abdominal wall, close below the costal arch. Each transducer was connected to a measuring bridge. The signals were on line stored using a HP 9835 A computer, allowing later analysis of the data.
(§2) 18 hours prior to the experiment food was withdrawn from the animals, water ad libidum. All experiments started between 08:00 and 09:00 am.
(§3) The following motility parameters were determined:
The integral under the concentration curves at 10 min intervals (mN×10min) as an index of phase I+II activity. The duration of drug action (min.)
(§4) The duration of the interdigestive migrating complex (IMC) (min) as a measure of phase III activity.
(§5) Test Compound II was given at doses of 0.2 and 0.5 mg/kg i.v. or 5 mg/kg i.g., dissolved in saline, in a volume of 1 ml/kg (i.v.) or 2 ml/kg (i.g.), n=3-6. Control n=26.
Reference substances: Buscopan, pitofenon.
Buscopan was given at doses of 0.3 and 1 mg/kg i.v., dissolved in saline, in a volume of 1 ml/kg, n=4-6. Pitofenone was given at doses of 1 mg/kg i.v., dissolved in saline, in a volume of 1 ml/kg, n=8.
1D50 -values were determined graphically.

The next data set relates to colonic motility. The experiment in a line: Motility of the large bowel (colonic motor complex) in conscious dogs. The data set is classed as in vivo, dog. An excerpt:
Male dogs (THG Tierhandelsgesellschaft Rodenbach, Hoe:BEAK (Beagle)) weighing 15-20 kg were used in all experiments.
At least 4 weeks prior the experiment the dogs had been equipped with miniaturized strain gage force transducers (T1-T2) (2×4 mm), sutured onto the gut at the locations mentioned below. The cables of the transducers were embedded into a cannula which carried the plug for external electric connection. This stainless steel cannula was implanted into the abdominal wall, close below the costal arch. Each transducer was connected to a measuring bridge. The signals were on-line stored using a HP 9835 A computer, thereby allowing later analysis of the data.
T1: Colon ascendens 10 cm aborafrom the ileoceval valve (ICV)
T2: Colon transversum 25 cm aborad from the ICV
18 hours prior to the experiment food was withdrawn from the animals, water ad libidum All experiments started between 08:00 and 09:00 am.
The following parameters were determined:
The duration of the cycle (min)
The duration of the colonic motor complex (CMC) (min)
The maximal height of the concentrations (AU: arbitrary units)
Data from the two recording sites (T1-T2) were pooled. […]
Statistical methods: For detection of significant differences (p<0.05) the unpaired t-test was used. Only significant differences were indicated by *.

A further data set concerns Guinea pig ileum. As to the kind of experiment: Antispasmodic activity in isolated guinea pig ileum (acetylcholine contraction). The data set is classed as cell-based. The conditions noted are these: for Duration of action: isolated guinea pig ileum. As for the experimental part:
Small intestines obtained from freshly sacrificed guinea pigs (weight range, 200-400 g) of either sex were cleaned and stored in tyrode solution. A piece of ileum was mounted in an organ bath containing tyrode solution at 37° C. and maintained at a tension of 0.5 to 1.0 g. The solution was continuously aerated with compressed air. After an initial equilibration period, a sub-maximal dose of acetylcholine required for measurable contraction was standardized. Tension changes were monitored using an isotonic strain gauge attached to the tissue and the responses were recorded on a strip chart recorder. Antispasmodic activity of test compounds at different concentrations was followed and the IC50, values were calculated from dose response curves.

Another data set concerns Porcine liver esterase. The experiment in a line: Enzymatic hydrolysis rates by porcine liver esterase. The data set is classed as in vitro ADME. To be noted: 1 mM, pH 8.0, 37° C. As for the experimental part:
Porcine liver esterase (0.5 U=2 μg) was preincubated in 40 mM Tris-HCl buffer, pH 8.0, at 37° C. for 5 min. The reaction was initiated with the addition of the test compound (final concentration, 1 mM) in the final volume of 250 μl. Enzyme reaction was terminated at different time intervals by the addition of 60 μl of 1M acetic acid. The solution was made alkaline (pH 10.5) by adding 0.4M NaOH and the alkaline solution was rapidly extracted (three times) with 2.5 ml of chloroform. An aliquot of the aqueous supernatant was diluted with double distilled water and the absorbance was measured at 290 nm. Amount of test compound III (molar extinction=14,400) formed was calculated.

The conditions of data set [2]: cited from earlier work.
For data set [3], the system named is small intestine motility. The experiment in a line: Small intestinal motility in the conscious dog, phase III activity, intragastrical. The data set is classed as in vivo. The conditions noted are these: 5 mg/kg intragastrically.
Description: as §1, §2, §3, §4, §5

A further data set has as its system sciatic nerve. As to the kind of experiment: Conduction block anaesthesia in the rat, injection near sciatic nerve. The data set is classed as in vivo. The conditions noted are these: for blockade of nerve conduction: injected near the sciatic nerve, hydrochloride. The procedure:
Conduction block anaesthesia was produced in the rat using compound II [(Isopropyl 2-(4-2-piperidinoethoxy)-benzoyl)benzoate hydrochloride] according to the method of Traunt. (Traunt, A. P. Arch. Int. Phamacodyn. 115:483-497,1957).
The conduction block produced was of long duration and required a number of days for complete recovery. A dose of 20 mg/kg compound II blocked nerve conduction in the rat for about 33 days. Ten mg/kg of compound II blocked the nerve for 18±2 days (n=25). In comparison, 10 mg/kg of lignocaine, a standard local anesthetic, produced conduction block for only 0.086±0.01 days (n-10). […] This long lasting but reversible blockade of nerve conduction is of significant interest in the treatment of cancers, neuralgias and post-surgical states.

Where two headings read alike, the source gives them in different places. Some results are limits rather than exact numbers.

Consider `CCCC[N+]1(C)[C@@H]2C[C@@H](OC(=O)[C@H](CO)c3ccccc3)C[C@H]1[C@@H]1O[C@@H]12` (some centres unmarked) [Buscopan], for which the Duration of action in the data set with small intestine motility [1] (1 mg/kg i.v., until postdrug values reached 90% or more of predrug) was found to be 30 min. Further, the “rank order of potency” value with small intestine motility [1] is “Test Compound II>buscopan>pitofenon”. The “Max. height of CMC” value in the data set on colonic motility (3 mg/kg intragastrically) worked out at 35 ± 17 AU. Besides, the “effect on colonic motility” value in the data set on colonic motility (3 and 10 mg/kg i.g.) is on record as “no effect on colonic motility”.

Turning to `COC(=O)c1ccccc1C(=O)c1ccc(OCCN2CCCCC2)cc1.Cl` [Test compound I, Methyl-2-[4-(2-piperidino-ethoxy)-benzoyl]-benzoate hydrochloride], the “rank order of potency” value in the data set on small intestine motility [1] is listed as “Test Compound II>buscopan>pitofenon”. Besides, the IC50 in the data set with Guinea pig ileum (Cavia porcellus, acetylcholine contraction, isolated ileum, 37° C.) came out at 1 µg/mL. Besides, the Duration of action in the data set with Guinea pig ileum is reported as less than 1.5 min. Also, the “μmol test compound III formed per mg protein per ml” value is 0.00 μmol per mg protein per ml with Porcine liver esterase (time 0.0 hours), 0.50 μmol per mg protein per ml in the data set on Porcine liver esterase (time 0.5 hours), 1.62 μmol per mg protein per ml in the data set with Porcine liver esterase (time 2.0 hours) and 2.78 μmol per mg protein per ml in the data set with Porcine liver esterase (time 3.5 hours). For the same compound, the antispasmodic activity entry in data set [2] (administered intravenously) is given as “potent antispasmodic activity”; in data set [2] (administered orally) it was “considerably reduced”. In addition, in data set [2] (oral), the “metabolism of methyl ester to the corresponding acid” value was “rapid metabolism of the methyl ester to the corresponding acid”.

Take `CC(C)OC(=O)c1ccccc1C(=O)c1ccc(OCCN2CCCCC2)cc1.Cl` [Test compound II, Isopropyl-2-[4-(2-piperidino-ethoxy)-benzoyl]-benzoate hydrochloride]: the “duration of inhibitory effect” value in the data set on small intestine motility [1] (0.5 mg/kg i.v.) was “approximately one”. Also, the “rank order of potency” value in the data set on small intestine motility [1] is “Test Compound II>buscopan>pitofenon”. The “inhibition of phase III activity” value in the data set on small intestine motility [3] is listed as “a pronounced inhibition of phase III activity”. The same compound displayed a Duration of action in the data set with Guinea pig ileum of more than 7.0 min. The “effect on colonic motility” value in the data set on colonic motility (1 mg/kg i.g.) is “uneffective”. In addition, the “inhibition of colonic motility” value in the data set on colonic motility (4 mg/kg i.g. (so in the source)) is on record as “inhibited colonic motility (CMC in the conscious dog completely”. Moreover, the “μmol test compound III formed per mg protein per ml” value in the data set with Porcine liver esterase (time 0.0 hours) is recorded as 0.00 μmol per mg protein per ml; with Porcine liver esterase (time 0.5 hours), 0.05 μmol per mg protein per ml; with Porcine liver esterase (time 2.0 hours), 0.10 μmol per mg protein per ml; in the data set on Porcine liver esterase (time 3.5 hours), 0.10 μmol per mg protein per ml. Besides, the “duration of nerve conduction block” value in the data set with sciatic nerve (10 mg/kg near sciatic nerve) was 18 ± 2 days; in the data set on sciatic nerve (20 mg/kg near sciatic nerve) it was “about 33 days”. For the same compound, the “blockade of nerve conduction” value with sciatic nerve (listed as Compound II) is listed as “dose-dependent blockade of nerve conduction”; in the data set with sciatic nerve (listed as compound II) it was “reversible blockade of nerve conduction lasting for hours to days”.

Regarding `CCN(CC)CC(=O)Nc1c(C)cccc1C` [lignocaine], the “duration of nerve conduction block” value with sciatic nerve (10 mg/kg near sciatic nerve) is 0.086 ± 0.01 days.

As usually defined, the IC50 is the concentration at which inhibition is half-maximal. Lower therefore signals higher potency.
